From patent publication US7981903B2, “2-[2-{phenylamino}-1H-pyrrolo[2,3-D]pyrimidin-4-yl)amino] benzamide derivatives as IGF-1R inhibitors for the treatment of cancer” (GlaxoSmithKline LLC, priority 2007, dated 2011)

What was measured:
human IGF1R (hIGF1R) = target: T1, human IGF1R (hIGF1R) (Homo sapiens, UniProt P08069); assay: TR-FRET kinase assay of purified hIGF1R; type: biochemical; details: activated hIGF1R 0.5 nM, 10 μM ATP, values given as pIC50 category, read-out: IGF-1R pIC50 (converted)
T1 construct: containing amino acid residues 957-1367 of human IGF1R; made in house; host or cells: Sf9 cells (baculovirus)
T1 sequence (P08069 957-1367): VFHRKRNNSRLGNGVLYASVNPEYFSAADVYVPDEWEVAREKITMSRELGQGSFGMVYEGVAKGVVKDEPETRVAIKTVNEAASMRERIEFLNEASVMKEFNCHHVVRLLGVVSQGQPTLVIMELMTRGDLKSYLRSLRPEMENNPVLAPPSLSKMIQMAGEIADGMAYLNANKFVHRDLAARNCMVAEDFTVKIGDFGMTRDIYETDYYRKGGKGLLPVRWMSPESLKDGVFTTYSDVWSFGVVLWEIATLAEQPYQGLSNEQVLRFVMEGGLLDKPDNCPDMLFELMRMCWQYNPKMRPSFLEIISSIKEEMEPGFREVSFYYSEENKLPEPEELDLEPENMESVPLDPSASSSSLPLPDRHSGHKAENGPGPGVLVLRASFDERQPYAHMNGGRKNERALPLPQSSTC

human IR (hIR) = target: T2, human IR (hIR) (Homo sapiens, UniProt P06213); assay: TR-FRET kinase assay of purified hIR; type: biochemical; details: activated hIR 0.5 nM, 10 μM ATP, values given as pIC50 category
T2 construct: containing amino acid residues 979-1382 of human IR; made in house; host or cells: Sf9 cells (baculovirus), same process as hIGF1R
T2 sequence (P06213 979-1382): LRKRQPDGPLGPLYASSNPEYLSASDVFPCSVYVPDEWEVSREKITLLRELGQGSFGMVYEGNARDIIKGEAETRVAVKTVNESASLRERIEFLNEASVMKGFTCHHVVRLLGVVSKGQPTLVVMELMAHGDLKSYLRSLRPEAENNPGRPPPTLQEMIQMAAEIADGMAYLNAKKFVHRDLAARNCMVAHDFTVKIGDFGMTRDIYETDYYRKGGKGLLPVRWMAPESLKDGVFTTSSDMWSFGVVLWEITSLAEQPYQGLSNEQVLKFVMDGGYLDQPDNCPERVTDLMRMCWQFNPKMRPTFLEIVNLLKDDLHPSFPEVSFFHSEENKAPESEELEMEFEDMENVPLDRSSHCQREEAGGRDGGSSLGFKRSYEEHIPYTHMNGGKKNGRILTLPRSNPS

[1] = target: T3, NIH-3T3 cells overexpressing human IGF-1R (Homo sapiens, UniProt P08069); assay: IGF-1R cellular autophosphorylation (DELFIA); type: cell-based
T3 construct: expressed in transfected cells; host or cells: NIH-3T3 (mouse fibroblasts)
T3 sequence (P08069 31-1367): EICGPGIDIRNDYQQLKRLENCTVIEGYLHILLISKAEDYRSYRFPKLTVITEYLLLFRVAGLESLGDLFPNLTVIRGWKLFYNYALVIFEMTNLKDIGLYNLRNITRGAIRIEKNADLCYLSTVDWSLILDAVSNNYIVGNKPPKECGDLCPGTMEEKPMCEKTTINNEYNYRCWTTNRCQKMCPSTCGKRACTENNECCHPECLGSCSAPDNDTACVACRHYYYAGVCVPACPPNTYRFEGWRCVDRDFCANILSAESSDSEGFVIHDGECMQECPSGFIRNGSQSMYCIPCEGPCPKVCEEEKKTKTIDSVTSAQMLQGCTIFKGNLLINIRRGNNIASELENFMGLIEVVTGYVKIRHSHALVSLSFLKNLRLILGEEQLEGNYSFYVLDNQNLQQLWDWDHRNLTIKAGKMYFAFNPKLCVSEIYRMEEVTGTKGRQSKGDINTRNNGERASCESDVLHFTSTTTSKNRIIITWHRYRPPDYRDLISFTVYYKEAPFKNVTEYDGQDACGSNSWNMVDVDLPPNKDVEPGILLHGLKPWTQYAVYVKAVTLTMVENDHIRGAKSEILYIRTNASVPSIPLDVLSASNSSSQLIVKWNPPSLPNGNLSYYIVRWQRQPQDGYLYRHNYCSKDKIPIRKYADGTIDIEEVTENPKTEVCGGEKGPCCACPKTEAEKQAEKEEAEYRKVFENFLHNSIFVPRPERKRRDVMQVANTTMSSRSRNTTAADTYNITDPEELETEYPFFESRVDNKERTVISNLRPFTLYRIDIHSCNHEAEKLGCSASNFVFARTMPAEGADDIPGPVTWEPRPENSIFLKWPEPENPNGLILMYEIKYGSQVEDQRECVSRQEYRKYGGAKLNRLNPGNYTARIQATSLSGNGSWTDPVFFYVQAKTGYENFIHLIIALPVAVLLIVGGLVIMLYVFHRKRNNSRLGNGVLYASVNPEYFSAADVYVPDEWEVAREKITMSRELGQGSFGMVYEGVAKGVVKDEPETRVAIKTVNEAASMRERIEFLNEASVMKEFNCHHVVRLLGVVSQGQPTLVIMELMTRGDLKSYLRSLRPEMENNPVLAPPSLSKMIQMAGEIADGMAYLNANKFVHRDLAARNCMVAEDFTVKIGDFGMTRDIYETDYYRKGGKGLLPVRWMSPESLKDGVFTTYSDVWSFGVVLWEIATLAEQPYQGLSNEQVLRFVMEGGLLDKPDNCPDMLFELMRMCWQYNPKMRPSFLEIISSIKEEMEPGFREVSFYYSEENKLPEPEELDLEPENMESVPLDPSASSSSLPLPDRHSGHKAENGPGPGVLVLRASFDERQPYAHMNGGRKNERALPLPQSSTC
In short: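 Receptor autophosphorylation measured by DELFIA, capturing IGF-1R or IRβ and detecting with europium anti-pTyr, reported as percent of IGF-1- or insulin-stimulated signal. Compounds (30 uM to 1.5 nM) added 2 h before ligand, then 15 min stimulation (IGF-1 30 ng/ml or insulin 3 ug/ml).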

IC50 (human IGF1R (hIGF1R)) [nM]	IC50 (human IR (hIR)) [nM]	IC50 [1] [nM]	Compound
1.26 to 3.98	0.251 to 1	< 100	COc1cc(N2CCC(N3CCOCC3)CC2)ccc1Nc1nc(Nc2ccc(F)cc2C(N)=O)c2cc[nH]c2n1 [Example 59, 5-fluoro-2-{[2-({2-(methyloxy)-4-[4-(4-morpholinyl)-1-piperidinyl]phenyl}amino)-1H-pyrrolo[2,3-d]pyrimidin-4-yl]amino}benzamide]
1.26 to 3.98	0.251 to 1	< 100	COc1cc(N2CCOC[C@@H]2C)ccc1Nc1nc(Nc2ccc(F)cc2C(N)=O)c2cc[nH]c2n1 [Example 61, 5-fluoro-2-[(2-{[4-[(3S)-3-methyl-4-morpholinyl]-2-(methyloxy)phenyl]amino}-1H-pyrrolo[2,3-d]pyrimidin-4-yl)amino]benzamide]
1.26 to 3.98	0.251 to 1	100 to 500	COc1cc(N2CCN(C(C)C)CC2)ccc1Nc1nc(Nc2ccc(Br)cc2C(N)=O)c2cc[nH]c2n1 [Example 68, 5-bromo-2-[(2-{[4-[4-(1-methylethyl)-1-piperazinyl]-2-(methyloxy)phenyl]amino}-1H-pyrrolo[2,3-d]pyrimidin-4-yl)amino]benzamide]
0.251 to 1	0.251 to 1	< 100	CCCN1CCC=C(c2ccc(Nc3nc(Nc4cc(F)ccc4C(N)=O)c4cc[nH]c4n3)c(OC)c2)C1 [Example 70, 4-fluoro-2-[(2-{[2-(methyloxy)-4-(1-propyl-1,2,5,6-tetrahydro-3-pyridinyl)phenyl]amino}-1H-pyrrolo[2,3-d]pyrimidin-4-yl)amino]benzamide]
0.251 to 1	0.251 to 1	< 100	CCCN1CCCC(c2ccc(Nc3nc(Nc4cc(F)ccc4C(N)=O)c4cc[nH]c4n3)c(OC)c2)C1 (stereo not drawn) [Example 71, 4-fluoro-2-[(2-{[2-(methyloxy)-4-(1-propyl-3-piperidinyl)phenyl]amino}-1H-pyrrolo[2,3-d]pyrimidin-4-yl)amino]benzamide]
0.251 to 1	0.251 to 1	< 100	COc1cc(C2=CCN(C(C)C)CC2)ccc1Nc1nc(Nc2cc(F)ccc2C(N)=O)c2cc[nH]c2n1 [Example 72, 4-fluoro-2-[(2-{[4-[1-(1-methylethyl)-1,2,3,6-tetrahydro-4-pyridinyl]-2-(methyloxy)phenyl]amino}-1H-pyrrolo[2,3-d]pyrimidin-4-yl)amino]benzamide]
0.251 to 1	0.251 to 1	< 100	CCCN1CCC(c2ccc(Nc3nc(Nc4cc(F)ccc4C(N)=O)c4cc[nH]c4n3)c(OC)c2)CC1 [Example 73, 4-fluoro-2-[(2-{[2-(methyloxy)-4-(1-propyl-4-piperidinyl)phenyl]amino}-1H-pyrrolo[2,3-d]pyrimidin-4-yl)amino]benzamide]
0.251 to 1	0.251 to 1	100 to 500	COc1cc(N2CCC[C@H](O)C2)ccc1Nc1nc(Nc2cc(F)ccc2C(N)=O)c2cc[nH]c2n1 [Example 74, 4-fluoro-2-[(2-{[4-[(3S)-3-hydroxy-1-piperidinyl]-2-(methyloxy)phenyl]amino}-1H-pyrrolo[2,3-d]pyrimidin-4-yl)amino]benzamide]
0.251 to 1	0.251 to 1	< 100	COc1cc(N2CCC(N3CC[C@H](F)C3)CC2)ccc1Nc1nc(Nc2cc(F)ccc2C(N)=O)c2cc[nH]c2n1 [Example 75, 4-fluoro-2-[(2-{[4-{4-[(3S)-3-fluoro-1-pyrrolidinyl]-1-piperidinyl}-2-(methyloxy)phenyl]amino}-1H-pyrrolo[2,3-d]pyrimidin-4-yl)amino]benzamide]
0.251 to 1	0.251 to 1	< 100	COc1cc(N2CCC(N3CC[C@@H](F)C3)CC2)ccc1Nc1nc(Nc2cc(F)ccc2C(N)=O)c2cc[nH]c2n1 [Example 76, 4-fluoro-2-[(2-{[4-{4-[(3R)-3-fluoro-1-pyrrolidinyl]-1-piperidinyl}-2-(methyloxy)phenyl]amino}-1H-pyrrolo[2,3-d]pyrimidin-4-yl)amino]benzamide]
1.26 to 3.98	0.251 to 1	100 to 500	COc1cc(N2CCC(N3CCCC(F)(F)C3)CC2)ccc1Nc1nc(Nc2cc(F)ccc2C(N)=O)c2cc[nH]c2n1 [Example 77, 2-[(2-{[4-(3,3-difluoro-1,4′-bipiperidin-1′-yl)-2-(methyloxy)phenyl]amino}-1H-pyrrolo[2,3-d]pyrimidin-4-yl)amino]-4-fluorobenzamide]
1.26 to 3.98	1.26 to 3.98	< 100	COc1cc(N2CCN(CC3CC3)CC2)ccc1Nc1nc(Nc2cc(F)ccc2C(N)=O)c2cc[nH]c2n1 [Example 81, 2-[(2-{[4-[4-(cyclopropylmethyl)-1-piperazinyl]-2-(methyloxy)phenyl]amino}-1H-pyrrolo[2,3-d]pyrimidin-4-yl)amino]-4-fluorobenzamide]
1.26 to 3.98	1.26 to 3.98	< 100	COc1cc(N2CCN(C(C)C)CC2)c(OC)cc1Nc1nc(Nc2cc(F)ccc2C(N)=O)c2cc[nH]c2n1 [Example 82, 4-fluoro-2-[(2-{[4-[4-(1-methylethyl)-1-piperazinyl]-2,5-bis(methyloxy)phenyl]amino}-1H-pyrrolo[2,3-d]pyrimidin-4-yl)amino]benzamide]
1.26 to 3.98	1.26 to 3.98	< 100	COc1cc(N2CCOCC2)ccc1Nc1nc(Nc2cc(F)ccc2C(N)=O)c2cc[nH]c2n1 [Example 83, 4-fluoro-2-[(2-{[2-(methyloxy)-4-(4-morpholinyl)phenyl]amino}-1H-pyrrolo[2,3-d]pyrimidin-4-yl)amino]benzamide]
1.26 to 3.98	1.26 to 3.98	> 500	CCCN1CCC=C(c2ccc(Nc3nc(Nc4cc(F)ccc4C(=O)N[C@@H](C)CC)c4cc[nH]c4n3)c(OC)c2)C1 [Example 87, 4-fluoro-2-[(2-{[2-(methyloxy)-4-(1-propyl-1,2,5,6-tetrahydro-3-pyridinyl)phenyl]amino}-1H-pyrrolo[2,3-d]pyrimidin-4-yl)amino]-N-[(1S)-1-methylpropyl]benzamide]
1.26 to 3.98	1.26 to 3.98	> 500	COc1cc(N2CCN(C(C)C)CC2)ccc1Nc1nc(Nc2cc(F)cc(OC)c2C(N)=O)c2cc[nH]c2n1 [Example 88]
1.26 to 3.98	1.26 to 3.98	100 to 500	COc1cc(N2CCN(C(C)C)CC2)ccc1Nc1nc(Nc2cc(Cl)cc(F)c2C(N)=O)c2cc[nH]c2n1 [Example 93, 4-chloro-2-fluoro-6-[(2-{[4-[4-(1-methylethyl)-1-piperazinyl]-2-(methyloxy)phenyl]amino}-1H-pyrrolo[2,3-d]pyrimidin-4-yl)amino]benzamide]
1.26 to 3.98	1.26 to 3.98	100 to 500	COc1cc(N2CCN(C(C)C)CC2)ccc1Nc1nc(Nc2ccc(F)c(F)c2C(N)=O)c2cc[nH]c2n1 [Example 94, 2,3-difluoro-6-[(2-{[4-[4-(1-methylethyl)-1-piperazinyl]-2-(methyloxy)phenyl]amino}-1H-pyrrolo[2,3-d]pyrimidin-4-yl)amino]benzamide]
0.251 to 1	0.251 to 1	< 100	COc1cc(C2CCN(C(C)C)CC2)ccc1Nc1nc(Nc2cc(F)c(F)cc2C(N)=O)c2cc[nH]c2n1 [Example 97, 4,5-difluoro-2-[(2-{[4-[1-(1-methylethyl)-4-piperidinyl]-2-(methyloxy)phenyl]amino}-1H-pyrrolo[2,3-d]pyrimidin-4-yl)amino]benzamide]
0.251 to 1	0.251 to 1	< 100	CCCN1CCC(c2ccc(Nc3nc(Nc4cc(F)c(F)cc4C(N)=O)c4cc[nH]c4n3)c(OC)c2)CC1 [Example 98, 4,5-difluoro-2-[(2-{[2-(methyloxy)-4-(1-propyl-4-piperidinyl)phenyl]amino}-1H-pyrrolo[2,3-d]pyrimidin-4-yl)amino]benzamide]
0.251 to 1	0.251 to 1	< 100	COc1cc(N2CCC(O)CC2)ccc1Nc1nc(Nc2cc(F)c(F)cc2C(N)=O)c2cc[nH]c2n1 [Example 99]
0.251 to 1	0.251 to 1	< 100	COc1cc(N2CCC(N3CCCCC3)CC2)ccc1Nc1nc(Nc2cc(F)c(F)cc2C(N)=O)c2cc[nH]c2n1 [Example 100, 2-[(2-{[4-(1,4′-bipiperidin-1′-yl)-2-(methyloxy)phenyl]amino}-1H-pyrrolo[2,3-d]pyrimidin-4-yl)amino]-4,5-difluorobenzamide]
0.251 to 1	0.251 to 1	< 100	COc1cc(N2CCC(N3CCOCC3)CC2)ccc1Nc1nc(Nc2cc(F)c(F)cc2C(N)=O)c2cc[nH]c2n1 [Example 101, 4,5-difluoro-2-{[2-({2-(methyloxy)-4-[4-(4-morpholinyl)-1-piperidinyl]phenyl}amino)-1H-pyrrolo[2,3-d]pyrimidin-4-yl]amino}benzamide]
0.251 to 1	0.251 to 1	< 100	COc1cc(N2CCN(C(C)=O)CC2)ccc1Nc1nc(Nc2cc(F)c(F)cc2C(N)=O)c2cc[nH]c2n1 [Example 103, 2-[(2-{[4-(4-acetyl-1-piperazinyl)-2-(methyloxy)phenyl]amino}-1H-pyrrolo[2,3-d]pyrimidin-4-yl)amino]-4,5-difluorobenzamide]
0.251 to 1	0.251 to 1	< 100	COc1cc(N2CCOCC2)ccc1Nc1nc(Nc2cc(F)c(F)cc2C(N)=O)c2cc[nH]c2n1 [Example 104, 4,5-difluoro-2-[(2-{[2-(methyloxy)-4-(4-morpholinyl)phenyl]amino}-1H-pyrrolo[2,3-d]pyrimidin-4-yl)amino]benzamide]
